We go through three compounds from PMC11862990, “Utility of 6-aza-2-thiothymine in the synthesis of novel [1,2,4]triazolo[4,3-b][1,2,4]triazin-7-one derivatives: synthesis, structure elucidation, molecular docking and in vitro anti-lung cancer activity” (RSC Advances, 2025).

Where “and” joins values, the source holds several entries; their conditions need not be identical. Identical values can stand only once. Like-named read-outs stand apart in the source and are kept apart here. Marks after values point to notes of the source that are not given here.

Data set [1] relates to PACA2 (pancreatic cancer cell line). Kind of data set: MTT cytotoxicity assay, PACA2. The settings on record: Homo sapiens; for cytotoxicity at 100 µg/mL: read-out: (%) Mortality PACA2. The class given is cell-based. A general note: Tetrazolium assays rely on reduction of a dye to a coloured formazan, in cell work by metabolically active cells.
Experimental: (§1) Using specific human cancer cell lines, the anti-proliferative effectiveness of compounds 7a–j was evaluated in an in vitro assay. The anti-cancer activity of these compounds (7a–j) on various cancer cell lines, including PC3 (Prostate cell line), A549 (Lung carcinoma), PACA2 (Pancreatic cancer cell line) and BJ1 (normal skin fibroblast), was investigated in this study using the 3-(4,5-dimethylthiazol-2-yl)-2,5-diphenyltetrazolium bromide (MTT) test. Doxorubicin (Dox) was the standard medication used as a positive control.
(§2) All incubations were performed at 37 °C in a 5% CO2 incubator with a 95% humidified environment (Sheldon, TC2323; Cornelius, OR, USA). 96-well micro titer polypropylene plates were seeded with cells at a density of 10^4 cells per well in complete DMEM media, and the cells were allowed to adhere for 24 hours. After the media was aspirated, the tested compounds were added to the cells in a single dose of 100 μg ml^−1 in DMSO. Each well received 40 μl of MTT salt (2.5 g ml^−1) following a 48 hour incubation period. 200 μl of 10% sodium dodecyl sulfate (SDS) was added to each well after the reaction ended, and any formazan crystals that could have been produced were dissolved by two hours of incubator heating to 37 °C. The amount of formazan product was measured at 595 nm using a microplate reader (Bio-Rad Laboratories, model 3350, California, USA) with a reference wavelength of 690 nm, serving as a backdrop. Rather than the drugs under investigation, the medium was applied to the untreated cells (negative control). The examined compounds were dissolved in dimethylsulfoxide (DMSO), and the final concentration in the cells was less than 0.2%. For each compound and the control, the solvent concentration was the same.
The test system of data set [2] is lung cancer cell lines (A549). Kind of data set: DNA damage evaluation using the comet assay. The class given is cell-based, human. The settings on record: for DNA damaged cells% (mean ± SEM): A549, comet assay, negative control 11.59 ± 0.65; for Class 0 cells (no tail) / Class 1 cells (tail length < diameter of the nucleus) / Class 2 cells (tail length between 1× and 2× the diameter of the nucleus) / Class 3 cells (tail length > 2× the diameter of the nucleus) / No. of cells: Comets: A549, of 440 cells analyzed. As to the method:
The determination of DNA damage via the comet assay was conducted using lung cancer cell lines, following the methodology established by Olive et al. (1990).[32] Following trypsin treatment to generate a single-cell suspension, approximately 1.5 × 10^4 cells were embedded in 0.75% low-gelling-temperature agarose and swiftly pipetted onto a pre-coated microscope slide.
The samples underwent lysis for 4 hours at 50 °C in a solution containing 0.5% SDS and 30 mM EDTA at pH 8.0. Following an overnight rinse at room temperature in a Tris/borate/EDTA buffer, pH 8.0, samples underwent electrophoresis for 25 minutes at 0.6 V cm^−1 and were subsequently stained with propidium iodide. The slides were examined with a fluorescence microscope equipped with a CCD camera, and 150 individual comet images were analyzed from each sample for a tail moment, DNA content, and percentage of DNA in the tail.
The non-overlapping cells were randomly selected and assigned a score on a scale of 0–3 based on the comet tail length migration and the relative proportion of DNA in the nucleus. Class 0 indicates no detectable DNA damage and no tail; class 1 indicates a tail length less than the diameter of the nucleus; class 2 indicates a tail length between 1× and 2× the nuclear diameter; and class 3 indicates a tail longer than 2× the diameter of the nucleus (Collins et al., 1997).[33]

Data set [3] has as its system PC3 (prostate cell line). As to the kind of experiment: MTT cytotoxicity assay, PC3. Format: cell-based. The settings on record: Homo sapiens, read-out: (%) Mortality PC3.
Experimental: as §1, §2
Data set [4] has as its system BJ1 (normal skin fibroblast). As to the method:
Using specific human cancer cell lines, the anti-proliferative effectiveness of compounds 7a–j was evaluated in an in vitro assay. The anti-cancer activity of these compounds (7a–j) on various cancer cell lines, including PC3 (Prostate cell line), A549 (Lung carcinoma), PACA2 (Pancreatic cancer cell line) and BJ1 (normal skin fibroblast), was investigated in this study using the 3-(4,5-dimethylthiazol-2-yl)-2,5-diphenyltetrazolium bromide (MTT) test.
In the initial screening trial, a single dosage concentration of 100 μg ml^−1 was applied for 48 hours. The cytotoxicity of the treated cells was determined by calculating the cell death percentage (% mortality) as a percentage of untreated cells (Table 2).
Cell viability was tested using the MTT assay, 3-(4,5-dimethylthiazol-2-yl)-2,5-diphenyl-tetrazolium bromide (Bio Basic Canada Inc. Toronto, Canada).[26] Under class II biosafety regulations, the procedures were carried out in a sterile laminar air flow cabinet (Baker, SG403INT; Sanford, ME, USA). Cell lines were obtained from the American type culture collection (ATCC) as a gift from Dr Stig Linder, Karonisca Institute, Sweden. All incubations were performed at 37 °C in a 5% CO2 incubator with a 95% humidified environment (Sheldon, TC2323; Cornelius, OR, USA). 96-well micro titer polypropylene plates were seeded with cells at a density of 10^4 cells per well in complete DMEM media, and the cells were allowed to adhere for 24 hours. After the media was aspirated, the tested compounds were added to the cells in a single dose of 100 μg ml^−1 in DMSO. Each well received 40 μl of MTT salt ([…]) following a 48 hour incubation period. 200 μl of 10% sodium dodecyl sulfate (SDS) was added to each well after the reaction ended, and any formazan crystals that could have been produced were dissolved by two hours of incubator heating to 37 °C. The amount of formazan product was measured at 595 nm using a microplate reader (Bio-Rad Laboratories, model 3350, California, USA) with a reference wavelength of 690 nm, serving as a backdrop. Rather than the drugs under investigation, the medium was applied to the untreated cells (negative control). The examined compounds were dissolved in dimethylsulfoxide (DMSO), and the final concentration in the cells was less than 0.2%. For each compound and the control, the solvent concentration was the same.

The mark [5] stands for this setting: PaCa-2, 100 μg ml^−1, 48 hours, MTT.

Consider `COc1ccc(-c2nn(-c3ccccc3)c3nc(=O)c(C)nn23)cc1` [Compound 7g, 3-(4-Methoxyphenyl)-6-methyl-1-phenyl-[1,2,4]triazolo[4,3-b][1,2,4]triazin-7(1H)-one], for which, in data set [1] (setting [5]), the cytotoxicity at 100 µg/mL is 13.4 ± 1.15%. Moreover, in data set [2], the “DNA damaged cells% (mean ± SEM)” value is listed as 21.14 ± 0.85^b %; the “Class 0 cells (no tail)” value is reported as 347; the “Class 1 cells (tail length < diameter of the nucleus)” value (“Class 1 cells” below) is given as 32; the “Class 2 cells (tail length between 1× and 2× the diameter of the nucleus)” value (“Class 2 cells” for short) was found to be 38. For the same compound, in data set [2], the “Class 3 cells (tail length > 2× the diameter of the nucleus)” value (from here on “Class 3 cells”) amounted to 23 and the “No. of cells: Comets” value worked out at 93. Besides, the cytotoxicity at 100 µg/mL in data set [3] (100 μg ml^−1, 48 hours, MTT) worked out at 14.6 ± 0.92%. Further, in data set [4] (100 μg ml^−1, 48 hours, MTT), the “(%) Mortality BJ1 (cytotoxicity percentage on normal cells)” value was 2.8% and 2.8 ± 0.71%.

Consider `Cc1nn2c(C)nn(-c3ccc([N+](=O)[O-])cc3)c2nc1=O` [Compound 7a, 3,6-Dimethyl-1-(4-nitrophenyl)-[1,2,4]triazolo[4,3-b][1,2,4]triazin-7(1H)-one], for which the cytotoxicity at 100 µg/mL in data set [1] (setting [5]) was determined as 20.4 ± 0.11%. In addition, in data set [2], the “DNA damaged cells% (mean ± SEM)” value was 28.18 ± 1.25^a %; the “Class 0 cells (no tail)” value stood at 316; the “Class 1 cells” value came out at 37; the “Class 2 cells” value is on record as 45. In addition, in data set [2], the “Class 3 cells” value came to 42 and the “No. of cells: Comets” value is 124. Besides, the cytotoxicity at 100 µg/mL in data set [3] (100 μg ml^−1, 48 hours, MTT) is 28.2 ± 0.25%. For the same compound, the “(%) Mortality BJ1 (cytotoxicity percentage on normal cells)” value in data set [4] (100 μg ml^−1, 48 hours, MTT) is 3.5% and 3.5 ± 1.16%.

Regarding `COc1cccc2c1C(=O)c1c(O)c3c(c(O)c1C2=O)C[C@@](O)(C(=O)CO)C[C@@H]3O[C@H]1C[C@H](N)[C@H](O)[C@H](C)O1` [Dox, Doxorubicin, reference compound], in data set [1] (PaCa-2, 48 h), the cytotoxicity at 100 µg/mL came out at 100%. Half-maximal inhibition in data set [1] (PaCa-2, MTT, 48 hour incubation) (IC50) required 52.1 µM. For the same compound, in data set [2], the “DNA damaged cells% (mean ± SEM)” value was 23.86 ± 1.11^b %; the “Class 0 cells (no tail)” value came to 335; the “Class 1 cells” value was 34; the “Class 2 cells” value was found to be 41. In addition, in data set [2], the “Class 3 cells” value came out at 30 and the “No. of cells: Comets” value is reported as 105. Besides, the cytotoxicity at 100 µg/mL in data set [3] (48 h) is 100%. In addition, in data set [4] (human, 48 h, 100 μg ml^−1), the “(%) Mortality BJ1 (cytotoxicity percentage on normal cells)” value stood at 1.10 ± 0.52%.
